“Also recorded” adds a separate entry of the source.
How the values were obtained:
[1] = in vivo; cited from earlier work
[2] = test system: carrageenan-induced behavioral hyperalgesia in rats; assay: Hot plate method for measuring inflammatory nociception in freely moving rats; format: in vivo, rat; conditions: RGC 400 mg/kg oral (p<0.01) or indomethacin 2 mg/kg (p<0.05-0.01)
Description: The study assessed the efficacy of the RGC by two methods: • 1. Paw volume measurements • 2. Inflammatory nociception in freely moving rats • Red Grape Cells (RGC) prepared according to example 1. • RGC was administered orally at dose of 400 mg/kg body weight as a suspension in sterile drinking water, 2 h before carrageenan injection. The dose level was 40 mg/ml. Each rat was dosed with 1 ml of suspension per 100 g body weight. • RGC Composition: […] Rats were divided into three groups of eight rats in each group. The rats in all groups were injected with 1% Carrageenan ([…]) or sterile saline (0.9% NaCl) into the sub plantar tissue of left hind paw of each rat. The Following Tests were Performed: The hot plate method was used to determine inflammatory nociception in freely moving rates. After inducing edema and treatment with vehicle, indomethacin or RGC preparation, the rats were placed on a hot plate maintained at a temperature of 55±0.5° C. The latency to flick or lick the hind paw or jump from the hot plate in comparison to its baseline was considered as the reaction time. […]

[3] = test system: carrageenan-induced hind paw inflammation in rats; assay: Carrageenan-induced paw oedema rat model, paw volume measurements; format: in vivo; conditions: RGC 400 mg/kg oral or indomethacin 2 mg/kg 2 h before carrageenan, two-way ANOVA, Bonferroni, p<0.001
From the text: The aim of the present study was to evaluate in vivo anti-inflammatory activity of RGC (Red Grape Cells) made according to the large scale process of the invention in an acute inflammation model in rats so as to verify the efficiency of the cells produced according to the invention. One of the experimental models most widely used to study acute inflammation in rodents is that based on the intraplantar administration of carrageenan. The study assessed the efficacy of the RGC by two methods: • 1. Paw volume measurements • 2. Inflammatory nociception in freely moving rats • Red Grape Cells (RGC) prepared according to example 1. • RGC was administered orally at dose of 400 mg/kg body weight as a suspension in sterile drinking water, 2 h before carrageenan injection. The dose level was 40 mg/ml. Each rat was dosed with 1 ml of suspension per 100 g body weight. • RGC Composition: […] Rats were divided into three groups of eight rats in each group. The rats in all groups were injected with 1% Carrageenan ([…]) or sterile saline (0.9% NaCl) into the sub plantar tissue of left hind paw of each rat. The Following Tests were Performed: • paw volumes were measured hourly just before carrageenan injection at time point 0 and 1, 2, 4 hours after injection using caliper. • The paw dimensions were measured in two axes and paw volume was calculated. […]

[4] = Solubility assay of RES sources in water vs 80% methanol; format: physicochemical
Description: RGC, synthetic resveratrol (S-RES; Sigma-Aldrich) and resveratrol extract from the plant Polygonum Capsidatum (plant-RES) were dissolved in 80% methanol to achieve 100% dissolution. Then, all RES sources were dissolved in water at pH 2 and pH 7 and the percentage of dissolution in water was compared to the dissolution in methanol. The RES in all samples was monitored at 306 nm, based on its characteristic absorption profile, and its concentration was determined by a calibration curve of resveratrol analytical standard.

With `Oc1ccc(/C=C/c2cc(O)cc(O)c2)cc1` as the molecule, how does the “shape of concentration time curve” value [1] read?
The value was “distinct single concentration peak”.

What does the source list for `COc1ccc2c(c1)c(CC(=O)O)c(C)n2C(=O)c1ccc(Cl)cc1` [indomethacin]?
Hot plate latency delta, baseline-actual time, comparison to vehicle control (1M) ([2]; FIG. 3): significant decrease in the latency delta of response to the thermal stimulus, 2 and 4 hours after carrageenan injection; also recorded: statistically significant difference at 2 and 4 h; Hot plate latency, % from baseline, comparison to control group (1M) ([2]; hot plate 55°C, FIG. 2): statistically significant difference at 2 and 4 h; paw edema (volume %), comparison to control group (1M) [3]: statistically significant difference at 2 and 4 h

Which “dissolution in 80% methanol solution” value ([4]; 80% methanol) does the source give for “resveratrol (trans-3,5,4′-trihydroxystilbene) [Synthetic-RES]” here?
The value was “completely dissolved”.

And the “dissolution of RES in water, percentage compared to dissolution in methanol” value ([4]; acidified water pH=2 as well as pH 7.0, RES monitored at 306 nm, FIG. 5)?
The value was 7%.
